Consider four molecules from article PMC10567728, “Targeted imaging of uPAR expression in vivo with cyclic AE105 variants” (Scientific Reports, 2023).

The target of data set [1] is T1, uPAR (Homo sapiens, UniProt Q03405).
T1 construct: Recombinant human uPAR^1–283 was expressed; made in house; host or cells: Drosophila melanogaster S2 cells
In words: SPR real-time binding kinetics, peptides in solution and immobilised uPAR. As for the experimental part:
The real-time binding kinetics of uPAR•peptide interactions were measured with SPR using a Biacore T200™(Cytiva); essentially as described in[56],[77]. In brief, uPAR was covalently immobilised on a CM5 sensor chip via amine coupling resulting in a surface density of 1157–1581 RU (~ 33–44 fmol/mm^2). The binding kinetics for the peptides to immobilised uPAR were measured using a single cycle protocol. In this setup, peptides were injected as five serial two-fold dilutions with a contact time of 200 s. After the last analyte injection, the dissociation time was set to 1000 s. The sensor chip was regenerated with two consecutive injections of 0.1 M acetic acid in 0.5 M NaCl. All experiments were conducted at 20 °C with a flow rate of 50 µL/min in 10 mM HEPES, 150 mM NaCl, 3 mM EDTA, and 0.05% (v/v) surfactant P-20 at pH 7.4. The kinetic rate constants (kon and koff) were determined by non-linear regression fitting of the curves to the simple bimolecular interaction model (BiacoreT200 Evaluation™ 3.0 software).

The test system of data set [2] is uPAR expression in U87MG tumor-bearing mice. In kind it is in vivo. The note with it: [64Cu]Cu-DOTA peptides. As for the experimental part:
Five weeks old female NMRI nude mice were purchased from Janvier (Le Genest-Saint-Isle, France) and housed in groups to acclimatize for a week upon arrival with light/dark period of 12/12 h and under controlled environmental conditions (temperature: 20–22 °C, relative humidity: 55%). Access to fresh water and standard pellet diet was provided ad libitum. Human glioblastoma cancer cell line U87MG (ATCC, Manassas, USA) was cultured in Dulbecco’s modified eagle medium (DMEM) supplemented with 10% fetal bovine serum and 1% penicillin–streptomycin at 37 °C and 5% CO2. Cells were harvested by trypsinization at a confluence of 70–90%. Mice were anesthetized (3–4% sevoflurane in 65% N2 and 35% O2) and ~ 4 × 10^6 U87MG cells resuspended in 100 μL PBS were injected subcutaneously into the right flank. Tumors were allowed to grow for 20 days. Tumor sizes were monitored using caliper measurements (Volume = 0.5 x (Length x Width^2)).
Tumor-bearing mice (tumor volumes (mean ± SD) of 221 ± 105 mm^3) were grouped (n = 6 per group) and anesthetized (3–4% sevoflurane in 65% N2 and 35% O2) prior to imaging. The four different [^64Cu]Cu–DOTA conjugated peptides were administered via tail vein injections of 5.4 ± 0.4 MBq corresponding to 118 ± 7 pmol (1b), 111 ± 4 pmol (8b), 92 ± 3 pmol (9b), and 75 ± 4 pmol (11b) (mean ± SD). Whole-body imaging consisting of a CT acquisition followed by a static PET acquisition was performed on an Inveon® small animal imaging system (Siemens Medical Systems, Malvern, PA, USA). PET/CT imaging was performed 1 h, 22 h, and 46 h post-injection (p.i.) of tracer with a 5 min, 10 min and 15 min PET scan, respectively. During scans the animals were placed on a heated bedding system to keep the body temperature stable. The PET acquisition was performed with an energy window of 350–650 keV and a time resolution of 6 ns, and data was corrected for dead time and decay. The CT scan consisted of 360 projections, with a tube voltage of 65 kV, a tube current of 500 μA and an exposure time of 400 ms per projection. Sinograms from PET scans were reconstructed using a 3-dimensional maximum a posteriori algorithm with correction for scatter and attenuation (CT-based). PET and CT images were co-registered and analyzed using Inveon Research Workplace software (Siemens Medical Solutions). The mean percentage of injected dose per grams (%ID/g) in different tissues was extracted by manually creating regions of interest (ROI) on fused PET/CT images.

Data set [3] concerns the target T1, uPAR. The data set can be described thus: Nano-DSF thermal stability of uPAR•peptide complexes. The conditions noted are these: for Tm (apparent melting temperature of uPAR•peptide complex): 15 µM uPAR, 30 µM peptide, PBS pH 7.4, n = 3; for increase in apparent Tm: DOTA-conjugated peptides, compared to (1b). As for the experimental part:
The thermal stability of the uPAR•peptide complexes was analyzed with Nano-DSF using a Prometheus NT.48™ (Nanotemper). uPAR (15 µM) was mixed with twofold excess of peptide (30 µM) in PBS pH 7.4 and incubated for 15 min at RT to ensure complex formation. Samples containing either 15 µM uPAR or 30 µM of each peptide were included as controls. The samples were loaded into standard capillaries and in triplicates. To unfold the proteins, the samples were exposed to an increasing temperature gradient from 20 to 95 °C with a ramping rate of 1 °C/min. The excitation power was set to 50% (Ex.280 nm) and the fluorescence emission collected at 330 nm and 350 nm. The melting temperatures of the complexes were determined in the PR.ThermControl software (Nanotemper) from the first derivative of the fluorescence ratio (350 nm/330 nm).

For another data set, the target named is T2, uPAR•uPA interaction (Homo sapiens, UniProt Q03405).
T2 construct: Recombinant human uPAR^1–283 was expressed; made in house; host or cells: Drosophila melanogaster S2 cells
T2 sequence (Q03405 23-305): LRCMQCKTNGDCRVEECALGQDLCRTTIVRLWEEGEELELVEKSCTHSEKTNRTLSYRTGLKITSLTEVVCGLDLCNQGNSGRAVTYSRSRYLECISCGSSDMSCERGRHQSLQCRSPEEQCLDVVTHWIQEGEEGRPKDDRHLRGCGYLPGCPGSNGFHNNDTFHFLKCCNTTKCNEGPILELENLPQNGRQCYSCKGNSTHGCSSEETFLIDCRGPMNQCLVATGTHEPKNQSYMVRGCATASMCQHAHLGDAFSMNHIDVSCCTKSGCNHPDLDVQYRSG
In words: SPR competition assay of the uPAR•uPA interaction. The conditions noted are these: for IC50: competition of uPAR•uPA interaction, 2 nM uPAR, 20 °C, n = 3. In kind it is binding. As for the experimental part: The IC50-values of antagonistic peptides on the uPAR•uPA interaction were determined with SPR using a Biacore T200™ or Biacore 3000™ instruments (Cytiva) essentially as described[4],[56],[77]. In brief, we immobilized high levels of pro-uPA^S356A (0.1 pmol pro-uPA/mm^2) on a CM5 sensor chip via amine coupling. The experiments were conducted by injecting 2 nM uPAR in presence of a threefold dilution series of a given antagonistic peptide for 300 s with a flow rate of 50 µL/min at 20 °C. The high immobilization levels result in binding conditions that are entirely controlled by mass transport limitations (MTL). Accordingly, the observed association rates (vobs) are directly proportional to the concentrations of binding-active uPAR in solution. To determine the IC50, we also measured a standard curve of uPAR binding (a twofold dilution series of 0.06 to 2 nM uPAR, linear due to MTL). The running buffer was 10 mM HEPES, 150 mM NaCl, 3 mM EDTA, and 0.05% (v/v) surfactant P-20 at pH 7.4, and the regeneration buffer was 0.1 M acetic acid in 0.5 M NaCl.

A further data set has as its system U87MG tumor-bearing mice. In words: Ex vivo biodistribution by gamma-counting of resected organs. The note with it: [64Cu]Cu-DOTA peptides, ex vivo at 46 h; also tumor to muscle or heart ratios. Format: in vivo. As for the experimental part: After the last PET/CT scan at 46 h p.i., mice were euthanized by cervical dislocation under anesthesia, and tumor, blood, heart, lung, liver, spleen, kidney, and muscle tissue were resected. All tissues were weighted, and the radioactivity measured in a gamma counter (Wizard2, Perkin Elmer). Data was corrected for decay, tissue weight and injected amount of radioactivity.

The target in data set [4] is uPAR. The note with it: read-out: KD of the uPA•uPAR interaction; cited from earlier work.
The mark [5] stands for this setting: [63Cu]-DOTA labelled peptides, single-cycle SPR.
Where [6] appears, read: single cycle SPR, immobilised uPAR, 20 °C.
The mark [7] stands for this setting: single cycle SPR, immobilised uPAR, 20 °C, 1:1 model.
Where [8] appears, read: single cycle SPR, immobilised uPAR, 20 °C, read-out: kon.

Like-named read-outs stand apart in the source and are kept apart here. Positions of bridges follow the written chain, without caps; N, C: chain ends. Non-standard residues stand in square brackets, D forms with d. Residues, ends and D or L forms follow the SMILES beside them. *: point of attachment. DOTA = O=C(O)CN1CCN(CC(=O)O)CCN(CC(=O)*)CCN(CC(=O)O)CC1; Cha = N[C@@H](CC1CCCCC1)C(=O)O

T1 sequence (Q03405 23-305): as above

One may read the Kd as the free concentration of one partner at which half of the binding sites on the other are occupied at equilibrium, for simple one-to-one binding. For orientation: koff means the rate constant with which the complex falls apart. High values mean fast dissociation, low ones slow dissociation. By kon is commonly meant the second-order rate constant of association. The IC50 is the concentration that gives 50% inhibition. The low end stands for inhibition by little substance, the high end for a need for much substance. Consider `CC(C)C[C@H](NC(=O)[C@H](Cc1ccc(O)cc1)NC(=O)[C@@H](CCCNC(=N)N)NC(=O)[C@@H](CO)NC(=O)[C@H](Cc1ccccc1)NC(=O)[C@H](CC1CCCCC1)NC(=O)[C@H](CC(=O)O)NC(=O)CN1CCN(CC(=O)O)CCN(CC(=O)O)CCN(CC(=O)O)CC1)C(=O)N[C@@H](Cc1c[nH]c2ccccc12)C(=O)N[C@@H](CO)C(N)=O` [8b], for which, on uPAR [1] (setting [5]), binding was characterised by a dissociation constant (Kd) of 13.9 nM and the koff came to 0.00425 ± 1e-05 s⁻¹. Moreover, the “reduction of affinity on DOTA-conjugation” value at uPAR [1] (real-time binding kinetics, vs unconjugated peptides) was 8–11 fold. The molecule further registered a koff on uPAR [1] (setting [6]) of 0.002064 ± 2e-06 s⁻¹. Moreover, at uPAR [1] (setting [7]), the Kd was found to be 4.22 nM. At uPAR [1] (setting [8]), the kon amounted to 490000 ± 1000 M⁻¹ s⁻¹. Besides, in data set [2] (PET scanning or ex vivo counting of resected organs), the “tumor uptake and imaging contrast, (1b) compared with (8b)” value was “no significant differences”. Besides, in the data set with uPAR [3], the “Tm (apparent melting temperature of uPAR•peptide complex)” value was ~ 70 °C and the “increase in apparent Tm” value is “approximately 11 °C”. For the same molecule, on uPAR•uPA interaction ((1b) vs (1), (8b) vs (8)), the “IC50 of DOTA-conjugated peptide compared to unconjugated peptide” value is on record as “four to fivefold higher”. The IC50 at uPAR•uPA interaction worked out at 8.2 ± 0.1 nM.

With `CC(C)C[C@@H]1NC(=O)[C@H](Cc2ccc(O)cc2)NC(=O)[C@H](NC(=O)[C@@H](CO)NC(=O)[C@H](Cc2ccccc2)NC(=O)[C@H](CC2CCCCC2)NC(=O)[C@H](CC(=O)O)NC(=O)CN2CCN(CC(=O)O)CCN(CC(=O)O)CCN(CC(=O)O)CC2)CSSC[C@@H](C(N)=O)NC(=O)[C@H](Cc2c[nH]c3ccccc23)NC1=O` [9b] ({DOTA}-D[Cha]F[dS][dC]YLWC-NH2; disulfide 5-9), at uPAR [1] (setting [5]), the Kd is 22 nM, the koff is 0.00659 ± 2e-05 s⁻¹ and the kon is reported as 2.99 ± 0.04 105 M-1 s-1. This molecule yielded a koff at uPAR [1] (setting [6]) of 0.002744 ± 4e-06 s⁻¹. At uPAR [1] (setting [7]), this molecule showed a Kd of 4.26 nM. For the same molecule, the kon on uPAR [1] (setting [8]) is 644000 ± 2000 M⁻¹ s⁻¹. For the same molecule, in data set [2], the “tumor uptake and tumor-to-organ ratios compared to linear control (8b)” value was “significant albeit weak improvement”. The “difference in tumor max compared to (8b)” value in data set [2] (PET at 22 h) is “statistically significant”. Also, the “tracer uptake compared to (8b)” value in data set [2] (all PET scans (1 h, 22 h, 46 h)) was “small but consistently higher uptake”. Further, the “difference in activity of resected tumors compared to (8b)” value with U87MG tumor-bearing mice was “statistically significant”. In addition, in the data set with uPAR [3], the “Tm (apparent melting temperature of uPAR•peptide complex)” value is no less than 70 °C and the “increase in apparent Tm” value was “approximately 11 °C”. In addition, the half-maximal inhibitory concentration (IC50) on uPAR•uPA interaction is 7.3 ± 0.2 nM.

At uPAR [1] (setting [6]), `CC(C)C[C@H](NC(=O)[C@H](Cc1ccc(O)cc1)NC(=O)[C@@H](CCCNC(=N)N)NC(=O)[C@@H](CO)NC(=O)[C@H](Cc1ccccc1)NC(=O)[C@H](CC1CCCCC1)NC(=O)[C@H](CC(=O)O)NC(=O)CNC(=O)CNC(=O)[C@@H](CO)NC(=O)CNC(=O)[C@H](CCC(=O)O)NC(=O)[C@@H](N)CCC(=O)O)C(=O)N[C@@H](Cc1c[nH]c2ccccc12)C(=O)N[C@@H](CO)C(N)=O` [compound 10] (H-EEG[dS]GGD[Cha]F[dS][dR]YLWS-NH2; N-terminus assumed) registered an off-rate (koff) of 0.001497 ± 2e-06 s⁻¹. Further, the kon at uPAR [1] (setting [8]) worked out at 595000 ± 1000 M⁻¹ s⁻¹. The “Tm (apparent melting temperature of uPAR•peptide complex)” value at uPAR [3] was ~ 65 °C. For the same molecule, on uPAR•uPA interaction ((8) vs (1) and (10) vs (4)), the “fold increase in potency on C-terminal amidation” value is recorded as 5.6 fold.

On to “urokinase-type plasminogen activator [uPA]”, for which the Kd at uPAR [4] was 0.02 nM.
